Structures are written as SMILES.

Consider 2 compounds from patent publication US20100029696A1, “INDOLYLAMINO QUINAZOLINE DERIVATIVES AS ANTITUMOR AGENTS” (priority 2005, published 2010).

One assay addresses T1, EGFR tyrosine kinase (Homo sapiens, UniProt P00533).
T1 construct: Recombinant intracellular fragments of EGFR, erbB2 and erbB4; made in house; host or cells: baculovirus/Sf21 insect cells
Kind of assay: Protein tyrosine kinase phosphorylation assay, Test (a), EGFR. The conditions noted are these: ATP at Km concentration; read-out: IC50 Test (a): Inhibition of EGFR tyrosine kinase protein phosphorylation. It is filed as biochemical. The procedure:
(§1) This test measures the ability of a test compound to inhibit the phosphorylation of a tyrosine containing polypeptide substrate by EGFR, erbB2 and erbB4 tyrosine kinase enzyme.
(§2) Recombinant intracellular fragments of EGFR, erbB2 and erbB4 (accession numbers X00588, X03363 and L07868 respectively) were cloned and expressed in the baculovirus/Sf21 system. […]
(§3) Constitutive kinase activity of these recombinant proteins was determined by their ability to phosphorylate a synthetic peptide (made up of a random co-polymer of Glutamic Acid, Alanine and Tyrosine in the ratio of 6:3:1). […]
(§4) The immobilised phospho-peptide product of the reaction was detected by immunological methods. […] After further washing, HRP activity in each well of the plate was measured colorimetrically using 22′-Azino-di-[3-ethylbenzthiazoline sulfonate (6)]diammonium salt crystals (ABTS™ from Roche) as a substrate.
(§5) Quantification of colour development and thus enzyme activity was achieved by the measurement of absorbance at 405 nm on a Molecular Devices ThermoMax microplate reader. Kinase inhibition for a given compound was expressed as an IC50 value. […] The range of phosphorylation was calculated from the positive (vehicle plus ATP) and negative (vehicle minus ATP) control values.

In another assay the target is T2, erbB2 tyrosine kinase (Homo sapiens, UniProt P04626).
T2 construct: Recombinant intracellular fragments of EGFR, erbB2 and erbB4; made in house; host or cells: baculovirus/Sf21 insect cells
T2 sequence (P04626 676-1255 limits assumed): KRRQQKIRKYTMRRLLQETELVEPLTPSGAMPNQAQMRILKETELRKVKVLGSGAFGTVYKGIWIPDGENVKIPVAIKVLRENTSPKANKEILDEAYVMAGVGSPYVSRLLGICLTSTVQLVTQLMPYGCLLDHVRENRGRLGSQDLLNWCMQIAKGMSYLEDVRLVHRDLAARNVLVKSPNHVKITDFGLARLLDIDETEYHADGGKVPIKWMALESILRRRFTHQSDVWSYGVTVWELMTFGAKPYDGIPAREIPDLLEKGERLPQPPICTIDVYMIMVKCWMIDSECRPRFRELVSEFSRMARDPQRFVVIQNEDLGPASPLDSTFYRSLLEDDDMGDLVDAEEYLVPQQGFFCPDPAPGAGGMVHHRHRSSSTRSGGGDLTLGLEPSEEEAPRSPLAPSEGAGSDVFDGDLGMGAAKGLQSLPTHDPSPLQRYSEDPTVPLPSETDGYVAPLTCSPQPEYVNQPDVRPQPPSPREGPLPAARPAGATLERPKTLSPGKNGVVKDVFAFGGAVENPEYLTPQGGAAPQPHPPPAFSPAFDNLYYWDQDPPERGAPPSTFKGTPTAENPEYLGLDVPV
Kind of assay: Protein tyrosine kinase phosphorylation assay, Test (a), erbB2. In kind it is biochemical. Conditions: ATP at Km concentration; read-out: IC50 Test (a): Inhibition of erbB2 tyrosine kinase protein phosphorylation. How it is done:
as §1, §2, §3, §4, §5

Assay [1] addresses T3, erbB2 in MCF7 derived cell line (Clone 24 cells) (Homo sapiens, UniProt P04626).
T3 construct: a cell line that overexpresses full length wild type erbB2 protein; expressed in transfected cells; host or cells: MCF7 (breast carcinoma) cells, 'Clone 24'
Kind of assay: Clone 24 phospho-erbB2 cell assay, Test (c). It is filed as cell-based. The conditions noted are these: MCF7 derived Clone 24 cells, 4 hours; read-out: IC50 Test (c): Inhibition of erbB2 tyrosine kinase protein phosphorylation. How it is done: This immunofluorescence end point assay measures the ability of a test compound to inhibit the phosphorylation of erbB2 in a MCF7 (breast carcinoma) derived cell line which was generated by transfecting MCF7 cells with the full length erbB2 gene using standard methods to give a cell line that overexpresses full length wild type erbB2 protein (hereinafter ‘Clone 24’ cells).
Clone 24 cells were cultured in Growth Medium (phenol red free Dulbecco's modified Eagle's medium (DMEM) containing 10% foetal bovine serum, 2 mM glutamine and 1.2 mg/ml G418) in a 7.5% CO2 air incubator at 37° C. […] Cell density was measured using a haemocytometer and viability was calculated using Trypan Blue solution before being further diluted in Growth Medium and seeded at a density of 1×10^4 cells per well (in 100 μl) into clear bottomed 96 well plates (Packard, No. 6005182). […]
Immunostaining was performed at room temperature. […] Plates were analysed within six hours of completing the immunostaining.
The Fluorescence signal is each well was measured using an Acumen Explorer Instrument (Acumen Bioscience Ltd.), a plate reader that can be used to rapidly quantitate features of images generated by laser-scanning. […]

T1 sequence (P00533 669-1210 limits assumed): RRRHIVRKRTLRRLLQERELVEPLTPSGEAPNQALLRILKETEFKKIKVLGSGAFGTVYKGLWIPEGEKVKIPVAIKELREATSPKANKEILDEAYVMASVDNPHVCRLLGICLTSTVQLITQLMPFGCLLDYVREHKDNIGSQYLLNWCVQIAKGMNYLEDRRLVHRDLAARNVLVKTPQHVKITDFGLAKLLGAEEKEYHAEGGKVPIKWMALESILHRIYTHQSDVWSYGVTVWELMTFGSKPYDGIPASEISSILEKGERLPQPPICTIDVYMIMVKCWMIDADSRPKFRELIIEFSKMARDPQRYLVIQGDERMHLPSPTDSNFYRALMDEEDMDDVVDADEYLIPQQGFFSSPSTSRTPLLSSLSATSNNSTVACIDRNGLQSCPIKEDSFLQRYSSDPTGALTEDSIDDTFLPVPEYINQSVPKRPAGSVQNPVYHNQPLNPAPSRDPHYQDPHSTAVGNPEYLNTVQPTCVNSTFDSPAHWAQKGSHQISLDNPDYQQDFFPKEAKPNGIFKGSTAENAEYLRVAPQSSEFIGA
T3 sequence (P04626 23-1255): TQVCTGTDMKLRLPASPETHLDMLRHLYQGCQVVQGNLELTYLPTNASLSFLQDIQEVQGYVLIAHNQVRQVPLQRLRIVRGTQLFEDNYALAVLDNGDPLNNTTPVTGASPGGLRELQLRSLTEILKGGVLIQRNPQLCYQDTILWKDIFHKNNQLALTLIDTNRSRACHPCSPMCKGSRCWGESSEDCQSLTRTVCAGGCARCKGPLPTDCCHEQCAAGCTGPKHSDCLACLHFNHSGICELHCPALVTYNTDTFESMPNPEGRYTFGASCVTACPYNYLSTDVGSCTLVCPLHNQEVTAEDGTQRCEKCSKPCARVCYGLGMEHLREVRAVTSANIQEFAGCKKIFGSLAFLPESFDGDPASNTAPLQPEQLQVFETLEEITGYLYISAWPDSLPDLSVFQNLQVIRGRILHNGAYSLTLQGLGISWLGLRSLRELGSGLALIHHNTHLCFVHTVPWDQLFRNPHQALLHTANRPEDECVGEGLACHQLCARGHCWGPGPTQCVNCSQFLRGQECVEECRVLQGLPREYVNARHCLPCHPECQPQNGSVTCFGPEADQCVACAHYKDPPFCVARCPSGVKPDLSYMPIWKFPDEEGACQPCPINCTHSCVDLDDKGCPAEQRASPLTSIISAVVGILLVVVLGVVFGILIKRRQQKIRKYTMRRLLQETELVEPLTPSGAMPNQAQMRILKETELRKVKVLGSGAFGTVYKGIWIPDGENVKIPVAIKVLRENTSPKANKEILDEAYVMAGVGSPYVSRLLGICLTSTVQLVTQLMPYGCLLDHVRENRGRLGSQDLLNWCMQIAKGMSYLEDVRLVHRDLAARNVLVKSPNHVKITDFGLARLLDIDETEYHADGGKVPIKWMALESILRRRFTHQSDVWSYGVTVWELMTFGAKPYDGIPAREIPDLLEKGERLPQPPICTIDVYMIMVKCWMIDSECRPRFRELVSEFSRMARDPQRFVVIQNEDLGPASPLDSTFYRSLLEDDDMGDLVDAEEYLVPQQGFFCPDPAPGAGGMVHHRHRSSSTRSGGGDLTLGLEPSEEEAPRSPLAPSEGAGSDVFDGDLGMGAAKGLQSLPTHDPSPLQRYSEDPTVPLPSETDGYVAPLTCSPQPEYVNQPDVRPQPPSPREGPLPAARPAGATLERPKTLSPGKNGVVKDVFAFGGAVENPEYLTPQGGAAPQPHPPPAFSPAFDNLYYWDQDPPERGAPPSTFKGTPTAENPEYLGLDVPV

`O=C(CO)N1CCCC[C@@H]1COc1cccc2ncnc(Nc3ccc4c(ccn4Cc4ccccn4)c3)c12` [Example 1, 2-Oxo-2-((2R)-2-{[(4-{[1-(pyridin-2-ylmethyl)-1H-indol-5-yl]amino}quinazolin-5-yl)oxy]methyl}piperidin-1-yl)ethanol]: the IC50 at EGFR tyrosine kinase and at erbB2 tyrosine kinase was 1 nM each time.
Consider `O=C(CO)N1CCCC[C@@H]1COc1cccc2ncnc(Nc3ccc4c(ccn4Cc4cscn4)c3)c12` [Example 2, 2-Oxo-2-((2R)-2-{[(4-{[1-(1,3-thiazol-4-ylmethyl)-1H-indol-5-yl]amino}quinazolin-5-yl)oxy]methyl}piperidin-1-yl)ethanol], for which the IC50 (as a rule, the concentration at which inhibition is half-maximal) on EGFR tyrosine kinase was 1 nM; in assay [1] it was 35 nM; on erbB2 tyrosine kinase, 38 nM.
